Measurements reported in patent US9295672B2, “Optically active pyrazolylaminoquinazoline, and pharmaceutical compositions and methods of use thereof” (Ambit Biosciences Corp., priority 2010, dated 2016).

Key:
phosphodiesterase PDE4 = assay: Inhibition of phosphodiesterase PDE4; format: biochemical; settings: human U937 cells; read-out: IC50 against phosphodiesterase PDE4
Method: Human U937 cells were used in this assay. The final DMSO concentration in the assay was about 1%. The assay was pre-incubated at 25° C. for 15 min and then incubated at 25° C. for 20 min in an incubation buffer (50 mM Tris-HCl, pH 7.5, 5 mM MgCl2). The assay was quantitated by measuring the amount of [^3H]adenosine.

[1] = Solubility tests of the ketone substrate in solvents; format: physicochemical; settings: 20 ° C.
Method: Solubility tests were conducted by adding (4-fluorophenyl)(4-(5-methyl-4H-pyrazol-3-ylamino)quinazolin-2-yl)methanone in small portions to a number of solvents until a suspended solid persisted. A number of solvents were selected for this study based on their suitability as co-solvents for the reaction.

[2] = Solubility tests of ketone, alcohol and their mixture in IPA/DMSO/water at 70° C.; format: physicochemical; settings: 1.113 g of material at 70° C., IPA 4 mL, Water 0.5 mL
Method: The aim of these experiments was to find the minimum amount of DMSO necessary to dissolve reagents and create homogeneous reaction mixture. One tube contained starting material, the second one a mixture of starting material and product (1/1) to simulate situation when reaction is half complete and the third tube contained product. Experiments were started in 5 mL of IPA/DMSO/water (8/1/1), where none of the mixtures was soluble at 70° C. DMSO was then added dropwise until full solubility could be reached. […] At these conditions, starting material was still partially undissolved. This experiment was used to determine the necessary amounts of DMSO to create a homogeneous reaction mixture (upon keeping the original quantities of IPA and water).

[3] = cynomolgus monkey, in vivo
[4] = biological target: human adenosine A3 receptor (Homo sapiens (Human), UniProt P0DMS8); assay: Adenosine A3 receptor radioligand binding assay ([125I] AB-MECA)
Method: Incubations of a range of concentration of each compound were carried out in duplicates for 1 h at 25° C. in 25 mM HEPES, pH 7.4, 5 mM MgCl2, 1 mM CaCl2, 0.1% BSA, in the presence of 0.5 nM [^125I] AB-MECA. Non-specific binding was determined in the presence of 1 μM IB-MECA.

Sequence of human adenosine A3 receptor (P0DMS8 whole entry): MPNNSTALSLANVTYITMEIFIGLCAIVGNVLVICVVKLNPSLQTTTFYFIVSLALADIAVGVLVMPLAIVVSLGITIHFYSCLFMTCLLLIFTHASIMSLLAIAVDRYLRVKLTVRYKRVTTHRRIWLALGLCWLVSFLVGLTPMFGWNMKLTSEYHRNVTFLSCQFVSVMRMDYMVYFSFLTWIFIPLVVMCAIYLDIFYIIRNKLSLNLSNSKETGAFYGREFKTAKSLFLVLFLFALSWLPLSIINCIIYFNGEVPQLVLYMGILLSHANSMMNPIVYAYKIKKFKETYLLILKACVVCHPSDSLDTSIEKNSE

Row | SMILES | Result (solubility test) ([2]; DMSO 0.5 mL) | Result (solubility test) ([2]; DMSO 5.5 mL) | Result (solubility test) ([2]; DMSO 7.5 mL) | Hill Coefficient [4] | also measured
1 | Cc1cc(Nc2nc(C(O)c3ccc(F)cc3)nc3ccccc23)n[nH]1 (racemic) [Racemate] | – | – | – | – | IC50 (phosphodiesterase PDE4): 2.53 µM
2 | CC1=NN=C(Nc2nc(C(=O)c3ccc(F)cc3)nc3ccccc23)C1 [(4-fluorophenyl)(4-(5-methyl-4H-pyrazol-3-ylamino)quinazolin-2-yl)methanone] | – | – | – | – | Solubility ([1]; solvent DMSO): 12000 to 149000 µg/mL; Solubility ([1]; solvent EtOAc): <6000 µg/mL; Solubility ([1]; solvent IPA-H2O (9:1)): <7000 µg/mL; Solubility ([1]; solvent PhMe): <9000 µg/mL; Solubility ([1]; solvent THF): <17000 µg/mL
3 | CCO [Alcohol] | Not dissolved | Dissolved | Dissolved | – | –
4 | Cc1cc(Nc2nc(C(=O)c3ccc(F)cc3)nc3ccccc23)n[nH]1 [Ketone] | Not dissolved | Not dissolved | Not dissolved | – | –
5 | Cc1cc(Nc2nc([C@H](O)c3ccc(F)cc3)nc3ccccc23)n[nH]1 [R-isomer] | – | – | – | 1.14 | share of the Cmax and AUC values determined for the racemic compound ([3]; male): over 85%
6 | Cc1cc(Nc2nc([C@@H](O)c3ccc(F)cc3)nc3ccccc23)n[nH]1 [S-isomer] | – | – | – | 0.811 | proportion of both enantiomers in plasma ([3]; po): almost equal proportions
